The source of these data is patent publication US8741932B2, “Imidazopyridine derivatives” (Piramal Enterprises Limited, priority 2009, dated 2014).

One may read the inhibition as the relative decrease from the control value, in per cent. By IC50 is commonly meant the concentration that inhibits the measured activity by half.

One experiment has as its target T1, mTOR (Homo sapiens, UniProt P42345).
T1 construct: endogenous in cells; host or cells: A2780 ovarian cell line (ATCC)
The experiment is described as follows: mTOR activity assay (cell ELISA, Phospho-AKT Ser 473, A2780 cells). The format is cell-based. The protocol:
Seed cells (Ovarian cell line A2780, ATCC) were plated in a 96 well microtitre plate at a density of 50,000 cells/cm^2 in appropriate complete cell culture medium. The cells were allowed to adhere for 18-24 hours. The cells were allowed to starve for 24 hours. […] Then the cells were stimulated with 20% FCS for 30 minutes. A typical assay would consist of a set of unstimulated cells, a set of stimulated cells and a set of cells treated with compounds of present invention and a set of cells treated with the stimulator. The medium was discarded. The cells were fixed with 100 μL of 3.7% formaldehyde for 15 minutes. The formaldehyde was discarded by inverting the plate and tapping it on a thick tissue paper layer to remove traces. The cells were washed and permeabilized with 200 μL PBS+Triton-X 100 solution (hereafter referred to as PBS-Triton, containing 0.1% triton-X 100 in 1×PBS) three times, incubating the cells each time for 5 minutes. 100 μL blocking solution (10% FCS in PBS-Triton) was added and incubated for 1 hour at 25° C. The blocking solution was discarded and cells were incubated with the primary antibody in PBS-Triton at a dilution of 1:500 for 1 hour at RT (25° C.). [The primary antibody is Phospho-AKT (Ser 473); Cell Signaling; Cat. No. 9271]. The primary antibody solution was discarded and the cells were washed 3 times with PBS-Triton solution and incubated with the HRP-conjugated secondary antibody in PBS-Triton at a dilution of 1:500 for 1 hour at RT (25° C.). The cells were washed 3 times with PBS-Triton followed by two washes with PBS (to remove traces of triton-X 100). The OPD (o-phenylene diamine dihydrochloride) substrate was prepared for detection of the signal by dissolving one tablet set (two tablets) of SigmaFast OPD (Sigma, Cat No. P9187) in 20 mL distilled water. It should be protected from light. 100 μL OPD solutions was added to the wells and the plate was incubated in the dark for 3-5 minutes (depending upon the development of the color). The reaction was stopped by adding 50 μL 2 N H2SO4. The absorbance was measured at 490 nm. The values were expressed in the treated samples, in terms of percentage or fold decrease in AKT phosphorylation with respect to the induced sample. PI-103 (Calbiochem, USA) was used as a standard.

The test system of a further experiment is STAT3. Nature of the experiment: STAT3 bioassay (Hela Stat3-luc, luciferase). The format is cell-based. The settings on record: Oncostatin M induction. The protocol: Cells were seeded (Hela Stat3-luc, ATCC P/N 30-2002) in a white 96 well plate (Nunc cat.no.136101) at a density of 20,000cells/well in 179 μl volume per well (DMEM from Sigma containing 10% FCS). The plate was incubated for 24 hours at 37° C./5% CO2. The cells (wells in triplicates) were then treated with 1 μl/well of 200× stock of the desired compound concentration prepared in 100% DMSO. Curcumin was used as a standard or positive control, added 10 μg/ml in triplicate. DMSO was used as medium control (1 μl/well added in triplicates). The plate was incubated at 37° C./5% CO2 for 1 hour. 20 μl/well Oncostatin M (Oncostatin M, Human, Recombinant, E. coli, Cat.No. 496260, 10 μg from Calbiochem) was added to treated wells, induction control (in triplicate) (1000 ng/ml stock prepared in serum free medium to get final concentration 100 ng/ml). The plate was then incubated for 7-8 hours at 37° C./5% CO2 for induction. A typical assay would consist of triplicate of medium control, triplicate of induction control, triplicate of positive/standard control and test compounds at desired concentration in triplicates. For termination Luciferase assay protocol was followed where the culture medium was removed from all the wells.
200 μl well of PBS was added to remove traces of medium and compound. The PBS was discarded. 40 μl/well of 1× lysis buffer was added to all the wells. The plate was incubated at RT for 20 minutes with intermittent shaking. 100 μl/well of LAB reagent was added to all the wells in dark. {LAB reagent for 1 plate=8 ml Luciferase assay buffer (LAB)+1 ml Coenzyme A (Sigma cat no. C3019) (2.1 mg/ml stock in LAB)+530 μL of ATP (Sigma cat.no.A2383) (5.85 mg/ml stock in LAB)+1 ml luciferin reagent (Promega cat no.245355) (2 mg/ml stock in LAB, protect from light)}.
The luminescence was immediately read on polar star. The values were expressed as percentage inhibition, in terms of treated values to that STAT3 (induction control). IC50 values were calculated from graphs using these percentages.

The target of a further experiment is T2, PI3Kα kinase (Homo sapiens, UniProt P42336).
T2 construct: purchased Millipore, USA
T2 sequence (P42336 whole entry): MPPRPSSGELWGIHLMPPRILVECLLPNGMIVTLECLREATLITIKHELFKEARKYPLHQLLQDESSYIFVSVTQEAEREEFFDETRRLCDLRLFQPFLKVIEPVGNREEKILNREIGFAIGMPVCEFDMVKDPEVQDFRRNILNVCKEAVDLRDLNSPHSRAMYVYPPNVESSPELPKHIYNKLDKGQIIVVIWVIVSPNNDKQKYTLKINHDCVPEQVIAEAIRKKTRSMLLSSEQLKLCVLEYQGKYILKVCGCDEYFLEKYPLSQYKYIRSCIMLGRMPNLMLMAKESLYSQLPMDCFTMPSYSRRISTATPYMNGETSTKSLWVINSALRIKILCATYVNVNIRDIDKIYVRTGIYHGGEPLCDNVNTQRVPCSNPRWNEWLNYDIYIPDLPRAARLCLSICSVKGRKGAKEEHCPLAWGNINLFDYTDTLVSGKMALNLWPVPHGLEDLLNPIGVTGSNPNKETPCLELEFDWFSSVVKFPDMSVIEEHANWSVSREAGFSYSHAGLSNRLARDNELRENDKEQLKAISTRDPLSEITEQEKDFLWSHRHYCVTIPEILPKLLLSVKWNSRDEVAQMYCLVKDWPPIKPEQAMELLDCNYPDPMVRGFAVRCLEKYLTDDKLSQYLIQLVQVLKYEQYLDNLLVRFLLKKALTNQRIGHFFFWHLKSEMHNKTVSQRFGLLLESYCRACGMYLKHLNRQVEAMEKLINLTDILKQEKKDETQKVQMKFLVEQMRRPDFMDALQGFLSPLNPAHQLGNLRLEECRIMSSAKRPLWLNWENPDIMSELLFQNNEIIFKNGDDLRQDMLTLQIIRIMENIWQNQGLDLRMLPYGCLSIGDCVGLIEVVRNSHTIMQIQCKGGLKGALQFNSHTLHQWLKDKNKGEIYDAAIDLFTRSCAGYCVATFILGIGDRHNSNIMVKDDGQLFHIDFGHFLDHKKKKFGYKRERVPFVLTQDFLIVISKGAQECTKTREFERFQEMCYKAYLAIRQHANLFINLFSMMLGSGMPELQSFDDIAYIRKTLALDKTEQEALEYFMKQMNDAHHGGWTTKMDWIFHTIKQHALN
T2 sequence (P27986 whole entry partner): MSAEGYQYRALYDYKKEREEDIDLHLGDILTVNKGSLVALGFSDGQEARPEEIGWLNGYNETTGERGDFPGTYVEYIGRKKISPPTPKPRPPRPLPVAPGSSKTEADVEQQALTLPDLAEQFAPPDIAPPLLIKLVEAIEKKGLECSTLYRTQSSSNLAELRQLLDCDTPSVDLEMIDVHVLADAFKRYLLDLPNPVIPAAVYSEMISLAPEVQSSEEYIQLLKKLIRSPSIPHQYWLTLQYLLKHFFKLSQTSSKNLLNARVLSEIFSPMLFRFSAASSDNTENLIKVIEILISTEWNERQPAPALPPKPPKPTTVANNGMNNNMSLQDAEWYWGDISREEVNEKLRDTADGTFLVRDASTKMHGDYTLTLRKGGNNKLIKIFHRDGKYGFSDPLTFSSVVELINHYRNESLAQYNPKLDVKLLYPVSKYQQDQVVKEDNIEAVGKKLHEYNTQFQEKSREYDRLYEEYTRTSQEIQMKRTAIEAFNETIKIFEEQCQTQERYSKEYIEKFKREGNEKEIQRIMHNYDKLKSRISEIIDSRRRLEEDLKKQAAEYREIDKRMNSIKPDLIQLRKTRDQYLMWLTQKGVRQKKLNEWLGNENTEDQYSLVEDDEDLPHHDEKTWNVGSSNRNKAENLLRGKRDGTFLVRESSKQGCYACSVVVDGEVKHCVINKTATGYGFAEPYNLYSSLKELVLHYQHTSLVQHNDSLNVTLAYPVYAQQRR
The experiment is described as follows: Kinase assay (PI3Kα). The format is biochemical. The settings on record: for IC50: read-out: IC50 (μM) for PI3K inhibition. The protocol: The kinase reaction was carried out in a 25 μL volume in a 1.5 mL microcentrifuge tube. The reaction mixture consisted of kinase buffer (10 mM Hepes, pH 7.5, 50 mM MgCl2), 20 ng PI3Kα kinase (Millipore, USA), 12.5 μg phosphotidylinositol (PI), 10 μM ATP and 1 μCi ^32γ P […]. […] The reactions were incubated at 30° C. for 20 minutes and were terminated by adding 1:1 mixture of MeOH and CHCl3. The tube contents were mixed on a vortex mixer and centrifuged at 10000 rpm for 2 minutes. 10 μL of the organic (lower) phase was spotted on to a TLC plate (silica, mobile phase: n-propanol and 2 M glacial acetic acid in 65:35 ratio). The plates were dried and exposed to an X-ray film. The bands appearing as a result of ^32γ P incorporation in PI were quantitated using the Quantityl)ne (BioRad, USA) densitometry program. PI-103 (Calbiochem, USA) was used as a standard.

Another experiment has as its system IL-6. Nature of the experiment: Human monocyte assay, LPS-stimulated IL-6. The format is cell-based. Conditions: human monocytes, 1 μg/ml LPS, 5 hours. Put shortly:
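Adherent human PBMC-derived monocytes (2×10^4/well) were cultured 48 h, preincubated 30 min with compound or 0.5% DMSO, then stimulated with 1 μg/ml E. coli LPS for 5 h at 37° C. TNF-α and IL-6 in supernatants were measured by ELISA.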

The test system of the next experiment is A549. Nature of the experiment: Cytotoxicity assay (propidium iodide), A549. The format is cell-based. Conditions: Homo sapiens; A549 (C1a, lung); 48 hours.
In another experiment the test system is H460. Nature of the experiment: Cytotoxicity assay (propidium iodide), H460. The format is cell-based. Conditions: Homo sapiens, NCI-H460; H460 (C1b, lung); 48 hours.
The subject of the next experiment is A2780. Nature of the experiment: Cytotoxicity assay (propidium iodide), A2780. The format is cell-based. The settings on record: for IC50 / inhibition at 1 µM: Homo sapiens; for IC50: A2780 (C3a, ovarian), 48 hours.
Another experiment deals with PC3. Nature of the experiment: Cytotoxicity assay (propidium iodide), PC3. The settings on record: for inhibition at 1 µM: Homo sapiens, PC-3, read-out: % inhibition at 1 μM.
[1] abbreviates: read-out: % Inhibition of mTOR activity at 1 μM.

Like-named read-outs stand apart in the source and are kept apart here.

Description for A549: (§1) Cells from cell lines as mentioned in the table given below were seeded at a density of 3000 cells/well in a white opaque 96-well plate. Following incubation at 37° C./5% CO2 for a period of 18-24 hours, the cells were treated with various concentrations (stock solution was prepared in DMSO and subsequent dilutions were made in media as per ATCC guidelines) of the representative compounds of present invention (refer table 3) for a period of 48 hours. At the end of treatment, the spent culture medium was discarded, the cells were washed with 1×PBS and 200 μl of 7 μg/ml propidium iodide was added to each well. The plates were frozen at −70° C. for at least 24 hours. For analysis, the plates were brought to RT, allowed to thaw and were read in PolarStar fluorimeter with the fluorescence setting. The percentage of viable cells in the non treated set of wells was considered to be 100 and the percentage viability following treatment was calculated accordingly. IC50 values were calculated from graphs plotted using these percentages.
Description for H460: as §1

For the molecule `CN(N=Cc1cnc2ccc(-c3cccnc3)cn12)S(=O)(=O)c1ccc(Br)cc1` [Example 8, 4-Bromo-N-methyl-N′-((6-(pyridine-3-yl)imidazo[1,2-a]pyridine-3-yl)methylene)benzenesulfonohydrazide], the inhibition at 1 µM at mTOR (setting [1]) lay within 30 to 50%. This molecule also yielded an IC50 in the experiment on STAT3 (Homo sapiens) of 100 to 5000 nM.

Consider `CN(N=Cc1cnc2ccc(-c3cccnc3)cn12)S(=O)(=O)c1ccc(F)c(F)c1` [Example 15, 3,4-difluoro-N-methyl-N′-((6-(pyridine-3-yl)imidazo[1,2-a]pyridine-3-yl)methylene) benzenesulfonohydrazide], for which, on mTOR (setting [1]), the inhibition at 1 µM was in the range of 30 to 50%. Also, the half-maximal inhibitory concentration (IC50) was in the range of 0.5 to 1 µM on PI3Kα kinase and 100 to 5000 nM in the experiment on STAT3 (Homo sapiens).

`CN(N=Cc1cnc2ccc(-c3cccnc3)cn12)S(=O)(=O)c1cccc(Cl)c1F` [Example 17, 3-Chloro-2-fluoro-N-methyl-N′-((6-(pyridine-3-yl)imidazo[1,2-a]pyridine-3-yl)methylene) benzenesulfonohydrazide]: on mTOR (setting [1]), the inhibition at 1 µM fell in the range of 30 to 50%. In addition, the values for the IC50 in the experiment with IL-6 (Monocyte) and on PI3Kα kinase were 0.001 to 5 µM and 0.01 to 0.5 µM, respectively.

Take `Cc1cc(S(=O)(=O)N(C)N=Cc2cnc3ccc(-c4cccnc4)cn23)ccc1Br` [Example 22, 4-Bromo-N, 3-dimethyl-N′-((6-(pyridine-3-yl)imidazo[1,2-a]pyridine-3-yl)methylene) benzenesulfonohydrazide]: the IC50 with IL-6 (Monocyte) is not below 5 µM; on PI3Kα kinase, 0.01 to 0.5 µM; with STAT3 (Homo sapiens), 100 to 5000 nM.

Consider `CN(N=Cc1cnc2ccc(-c3cccnc3)cn12)S(=O)(=O)c1cc(C(F)(F)F)cc(C(F)(F)F)c1` [Example 23, N-methyl-N′-((6-(pyridine-3-yl)imidazo[1,2-a]pyridine-3-yl)methylene)-3,5-bis(trifluoromethyl)benzenesulfonohydrazide], for which, on mTOR (setting [1]), the inhibition at 1 µM lay within 30 to 50%. Moreover, the IC50 was 0.001 to 5 µM with IL-6 (Monocyte); 10 to 5000 nM in the experiment on A549; 10 to 5000 nM with H460; 0.01 to 0.5 µM on PI3Kα kinase; 10 to 5000 nM in the experiment with A2780.

With `CCN(/N=C/c1cnc2ccc(-c3cccnc3)cn12)S(=O)(=O)c1cc([N+](=O)[O-])ccc1C` [Example 84], on mTOR (setting [1]), the inhibition at 1 µM fell in the range of 30 to 50%. The IC50 lay in the range of 0.001 to 5 µM in the experiment on IL-6 (Monocyte) and 0.01 to 0.5 µM on PI3Kα kinase.

With `Cc1ccc(F)cc1S(=O)(=O)N(C)/N=C/c1cnc2c(C)cc(-c3cccnc3)cn12` [Example 100, (E)-5-Fluoro-N,2-dimethyl-N′-((8-methyl-6-(pyridin-3-yl)imidazo[1,2-a]pyridin-3-yl)methylene)benzenesulfonohydrazide], the 50% inhibitory concentration (IC50) was 10 to 5000 nM with A549, 10 to 5000 nM in the experiment on H460, 0.01 to 0.5 µM at PI3Kα kinase and 10 to 5000 nM in the experiment with A2780.

For `Cc1ccc(F)cc1S(=O)(=O)N(C)/N=C/c1cnc2ccc(-c3cc4ccccc4[nH]3)cn12` [Example 115, (E)-N′-((6-(1H-indol-2-yl)imidazo[1,2-a]pyridin-3-yl)methylene)-5-fluoro-N,2-dimethylbenzenesulfonohydrazide], the IC50 at mTOR was 5000 to 10000 nM; in the experiment on IL-6 (Monocyte), not below 5 µM; on PI3Kα kinase, 0.01 to 0.5 µM; in the experiment on STAT3 (Homo sapiens) it was 5000 to 10000 nM.

Regarding `CN(/N=C/c1cnc2ccc(-c3cccnc3)cn12)C(=S)Nc1ccc(C#N)cc1` [Example 149, (E)-N-(4-cyanophenyl)-1-methyl-2-((6-(pyridin-3-yl)imidazo[1,2-a]pyridin-3-yl)methylene)hydrazinecarbothioamide], the IC50 with IL-6 (Monocyte) is not below 5 µM. The inhibition at 1 µM in the experiment with A2780 (A2780 (C3a), 1 μM) was 30 to 50%; in the experiment on PC3, 30 to 50%.

As for `COc1ccc(NC(=S)N(C)/N=C/c2cnc3ccc(-c4cccnc4)cn23)cc1` [Example 150, (E)-N-(4-methoxyphenyl)-1-methyl-2-((6-(pyridin-3-yl)imidazo[1,2-a]pyridin-3-yl)methylene)hydrazinecarbothioamide], the IC50 in the experiment on IL-6 (Monocyte) is not below 5 µM. In addition, the inhibition at 1 µM was 30 to 50% in the experiment on A2780 (A2780 (C3a), 1 μM) and 30 to 50% in the experiment with PC3.

For the molecule `CN(N=Cc1cnc2ccc(Br)cn12)C(=S)Nc1ccc(C(F)(F)F)cc1` [Example 152, 2-((6-bromoimidazo[1,2-a]pyridin-3-yl)methylene)-1-methyl-N-(4-(trifluoromethyl)phenyl) hydrazinecarbothioamide], in the experiment on IL-6, the IC50 lay in the range of 0.001 to 5 µM. In addition, the “% inhibition at 1 μM” value in the experiment with A2780 (A2780 (C3a), 1 μM) is recorded as “+ (50% ≧ % Inhibition ≧ 30%)”; in the experiment on PC3 (PC3 (C2a), 1 μM), “+ (50% ≧ % Inhibition ≧ 30%)”.

Consider `Oc1cccc(-c2nc(N3CCOCC3)c3oc4ncccc4c3n2)c1` [PI-103, reference compound], for which the inhibition at 1 µM on mTOR (read-out: % Inhibition of mTOR activity at 1 μM (number, standard)) turned out to be 50%. On PI3Kα kinase (at 100 nM), this molecule registered an inhibition at 0.1 µM of 80%.

Take “N-methyl-1-phenyl-N′-((6-pyridin-3-yl) imidazo[1,2-a]pyridine-3-yl) methylene)benzenesulfonohydrazide [Example 28]”: the values for the IC50 in the experiment with IL-6 and against STAT3 were 0.001 to 5 µM and more than 10000 nM, respectively.
